{
  "source": "patent US20070172471A1",
  "about": "“Method for identifying an anti- streptococcal agent and its use for treating streptococcal infections” (Hansa Medical AB, priority 2003, published 2007)",
  "key": {"[1]": {"system": "S. pyogenes AP1 bacteria infected mice", "format": "in vivo, mouse", "settings": "s.c. AP1 bacteria with 400 μg peptide, i.v. peptide after 30 min, lungs six hours after infection, scanning electron microscopy"}, "[2]": {"system": "purified PMNs in a mixture of plasma and M1 protein", "test": "M1 protein-induced PMN aggregation, scanning electron microscopy", "format": "cell-based, human", "procedure": "Cell culture, neutrophil isolation, and stimulation of cells. Human PMNs were isolated from fresh heparinized blood of healthy volunteers using NIM, a single step density gradient medium, according to the instructions supplied by the manufacture. PMNs were counted with a hemocytometer, resuspended in MEM medium at 10^7 cells/ml and maintained on rotation in this medium at room temperature until use. All experiments on isolated PMNs were performed in Na-medium and initiated within 1 h of PMN isolation. Neutrophilic proteinase release was induced by PMN activation through antibody cross-linking of CD11 b/CD18 as described previously (Gautam et al., 2000, J. Exp. Med., 191, 1829-1839).\nScanning electron microscopy—Probes were gently applied to Millipore filters (Waters Corporation, Milford). Samples were then sucked down to the filters by a wet filter paper lying underneath. The filters were fixed in 2% (v/v) glutaraldehyde, 0.1 M sodium cacodylate, 0.1 M sucrose, pH 7.2 for 1 h at 4° C., and washed with 0.15 M cacodylate, pH 7.2. The filters were postfixed with 1% (w/v) osmium tetroxide, 0.15 M sodium cacodylate, pH 7.2, for 1 h at 4° C., washed, and stored in cacodylate buffer. […]"}, "TNF-stimulated PMNs": {"system": "TNF-stimulated PMNs", "settings": "Loike et al., 1991; cited from earlier work"}, "[3]": {"system": "M1 protein-induced release of HBP from PMNs in human blood", "settings": "M1 protein 1 μg/ml, 30 min 37° C., FIG. 2 and FIG. 5B", "description": "HBP release. 100 μl human blood were diluted in PBS to a final volume of 1.0 ml and incubated with various PMNs-activating components for 30 min at 37° C. Cells were centrifuged (300×g for 15 min) and the supernatant was analyzed by sandwich ELISA. In order to quantify the total amount of HBP in blood, cells were lysed with 0.02% (v/v) Triton X-100, and pelleted as described above."}, "[4]": {"system": "mice of the C57BL/6 strain"}, "[5]": {"system": "thrombin-induced coagulation of normal plasma", "settings": "Laudano and Doolittle, 1980; cited from earlier work"}, "[6]": {"system": "thrombin-induced coagulation of normal plasma", "test": "Clotting assay (thrombin clotting time)", "format": "biochemical", "settings": "human plasma, peptides 100 μg/ml, 15 min 37° C., FIG. 5A", "procedure": "Clotting assay—The thrombin clotting time (TCT) was measured in a coagulometer (Amelung, Lemgo, Germany). Samples of 200 μl human citrate-treated plasma were incubated with 4 μl of peptide H-2395 or H-2940 (5 mg/ml) for 15 min at 37° C. Clotting was initiated by adding 100 μl of the TCT reagent (Sigma Chemicals, St. Louis, Mo.)."}, "PMNs": {"system": "PMNs", "settings": "Ruf and Patscheke, 1995; cited from earlier work"}, "[7]": {"settings": "M1 protein 15 μg/animal with peptide 400 μg/animal i.v., 30 min"}},
  "data": [
    {"substance": "Gly-Pro-Arg-Pro (GPRP) [peptide derived from the NH2-terminal region of the Aα chain of fibrinogen, used as β2 integrin antagonist]", "values": [
      {"measurement": "lung damage in infected mice", "setting": "[1]", "result": "much less affected"},
      {"measurement": "M1 protein-induced PMN aggregation", "setting": "[2]", "result": "inhibited the aggregation"},
      {"measurement": "adherence of TNF-stimulated PMNs to fibrinogen-coated surfaces", "setting": "TNF-stimulated PMNs", "result": "block adherence"},
      {"measurement": "effect on M1 protein-induced release of HBP", "setting": "[3]", "result": "blocked the mobilization of HT3P by M1 protein in a dose dependent manner"},
      {"measurement": "M1 protein induced lung lesions (hemorrhage and tissue destruction), light microscopy", "setting": "[4]; [7]", "result": "almost completely prevented"},
      {"measurement": "M1 protein-caused lung damage, scanning electron microscopy", "setting": "[4]; [7]", "result": "contained no precipitates"},
      {"measurement": "ratio of lung area containing protein aggregates versus total lung area", "setting": "[4]; M1 protein plus peptide i.v., six lung sections per animal, electron microscopy", "result": "6±2", "unit": "%"},
      {"measurement": "clot formation", "setting": "[5]", "result": "prevents clot formation"},
      {"measurement": "thrombin-induced coagulation / clotting time", "setting": "[6]", "result": "completely blocked thrombin-induced coagulation"},
      {"measurement": "platelet-induced activation of PMNs", "setting": "PMNs", "result": "inhibited"}
    ]}
  ]
}
